This note sets out measurements from patent publication EP1641803B1, “THIENOPYRIMIDINE DERIVATIVES AS POTASSIUM CHANNEL INHIBITORS” (Xention Limited, priority 2003, dated 2004).

Sequence of hKv1.5 (P22460 whole entry): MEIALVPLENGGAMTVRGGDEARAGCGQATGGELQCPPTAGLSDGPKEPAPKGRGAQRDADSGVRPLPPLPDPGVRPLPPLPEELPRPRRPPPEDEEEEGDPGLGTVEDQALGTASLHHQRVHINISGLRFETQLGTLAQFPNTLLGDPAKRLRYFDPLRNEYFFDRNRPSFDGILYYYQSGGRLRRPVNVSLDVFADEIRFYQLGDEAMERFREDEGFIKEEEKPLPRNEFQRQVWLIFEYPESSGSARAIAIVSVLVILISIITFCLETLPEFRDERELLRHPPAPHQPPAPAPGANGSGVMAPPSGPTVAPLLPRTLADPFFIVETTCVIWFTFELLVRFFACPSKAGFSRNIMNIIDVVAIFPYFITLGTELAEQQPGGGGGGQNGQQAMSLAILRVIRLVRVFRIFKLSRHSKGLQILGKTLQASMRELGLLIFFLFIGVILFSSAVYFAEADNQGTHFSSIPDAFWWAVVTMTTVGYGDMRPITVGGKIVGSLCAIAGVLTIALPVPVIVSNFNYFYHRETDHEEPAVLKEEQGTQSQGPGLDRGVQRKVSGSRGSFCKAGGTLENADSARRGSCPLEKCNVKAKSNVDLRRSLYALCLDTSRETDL

The target in this assay is hKv1.5 (Homo sapiens, UniProt P22460). The assay can be described thus: Kv1.5 Autopatch Electrophysiology (whole cell patch-clamp). The format is cell-based. The conditions noted are these: compound at 1µM, room temperature (22-24°C), held at -80mV, step to 0mV for 1000ms, total charge measured. On the procedure:
The external bathing solution contained (in mM): 150 NaCl, 10 KCl, […], 3 MgCl2, 1 CaCl2, 10 HEPES, pH 7.4. Patch pipettes were filled with an electrode solution of composition (in mM): 160 KCl, 0.5 MgCl2, 10 HEPES, 1 EGTA, pH 7.4 with KOH.
Compounds were dissolved in DMSO (100 %) and made up in the external bather at a concentration of 1µM. All experiments were conducted at room temperature (22-24°C).
A cell suspension (10 ml), with a density of 100,000 cells/ml, was aliquoted into a 15ml centrifuge tube and transferred to an incubator (37°C, 5% CO2) for approximately one hour before use. Following 60 min incubation, a tube was taken and centrifuged at 1000 rpm for 4 mins at room temperature. 9.5 ml supernatant was thence discarded, leaving a cell pellet at the bottom of the tube. The pellet was then resuspended using 100 µl of cold (4 °C), filtered (0.22 µm), 0.2 % BSA/bather solution (0.02g BSA/10ml bather). The bottom of the tube was manually agitated gently until the solution became cloudy with cells. The 100 µl cell resuspension solution was then stored on the bench at 4 °C (using a Peltier-based temperature control device) until used.
A length of capillary glass (1B150F-4, WPI) was dipped into the cell suspension solution, such that - 3 cm column of fluid was taken up by capillary action. A Ag/AgCl wire was dropped into the non-dipped end of the capillary also. The outside of the solution-filled end of the capillary was then dried and the capillary was loaded into the AutoPatch™. Borosilicate glass patch pipettes (from 1.5mm OD, thin-walled filamented, GC150-TF capillary glass, Harvard) were pulled using a DMZ pipette puller (Zeitz Instruments), and were back-filled using the internal pipette solution, being careful that no bubbles remain at the tip or in the body of the pipette. Patch pipettes typically had resistances of 2.3-3.5 MΩ. Once filled, the pipette tip and a proportion of the shaft (- 15 mm) were dipped into Sigmacote (Sigma). The recording pipette was then loaded into the AutoPatch™.
Automated patch-clamping was initiated by the operator, but thereafter AutoPatch.exe continued the experiment providing that pre-set conditions and criteria were satisfied.
Whole cell patch-clamp recordings were made using the AutoPatch™ rig, which incorporated an EPC9 amplifier (HEKA, Germany) under control of Pulse software (v8.54, HEKA, Germany), a motion controller with 2 translators (Newport, UK), valve controller (VF1) and a c-level suction device all at room temperature (22-24°C). This equipment was completely under the control of AutoPatch.exe and operator intervention was only made when there was a requirement to refill the drug reservoirs or to prevent the loss of a cell due to a technical error. Cells with an Rseries greater than 18 MΩ were discounted from the experiment.
Qualification stages prior to perfusion and drug application ensured that the observed current met the criteria for the experiment. Only those cells with an IK > 500 pA were used for experiments. Cells were continuously perfused with external solution at a flow rate of 1.8-2 ml/minute. […] Online analysis of the hKv1.5 current during the application of compounds was performed by the AutoPatch™ software. Voltage-step protocols and analysis of data was performed as described for conventional electrophysiology.
Electrophysiology voltage-step protocols and analysis of data was performed as follows. Data was sampled at 5kHz, and filtered with a -3 dB bandwidth of 2.5kHz. Cells were held at a voltage of -80mV. Currents were evoked to a voltage step for 1000ms in duration at 0mV every 5s. Currents were analysed using Pulsefit software (v8.54, HEKA, Germany), with the total charge measured during the whole of the voltage step. All other plots were produced using Igor Pro (WaveMetrics).
In general terms: Patch clamp records ionic current or voltage across a cell membrane.
The term inhibition denotes the drop in the measured response relative to a control, in per cent. Higher therefore signals strong suppression. `COc1ccc(-c2csc3ncnc(NCc4ccccn4)c23)cc1` [Example 138, [5-(4-Methoxy-phenyl)-thieno[2,3-d]pyrimidin-4-yl]-pyridin-2-ylmethyl-amine]: the inhibition at 1 µM amounted to 92.6%. Same read-out and setting: the same measure for `CC(Nc1ncnc2scc(-c3ccccc3)c12)c1ccccn1` (centres unmarked) [Example 149, (5-Phenyl-thieno[2,3-d]pyrimidin-4-yl)-(1-pyridin-2-yl-ethyl)-amine]: 78%. As for `Cc1cccnc1CNc1ncnc2scc(-c3ccccc3)c12` [Example 156, (3-methyl-pyridin-2-ylmethyl)-(5-phenyl-thieno[2,3-d]pyrimidin-4-yl)-amine], testing at 1 µM gave an inhibition of 92%.

`CCOC(=O)c1cccnc1CNc1ncnc2scc(-c3ccccc3)c12` [Example 160, 2-[(5-Phenyl-thieno[2,3-d]pyrimidin-4-ylamino)-methyl]-nicotinic acid ethyl ester] had an inhibition at 1 µM of 80%. Still for that read-out and setting: as for `Cc1cccc(CNc2ncnc3sc(C)c(-c4ccccc4)c23)n1` [Example 166, 6-methyl-N-[(6-methylpyridin-2-yl)methyl]-5-phenylthieno[2,3-d]pyrimidin-4-amine], the figure is 97%; as for `Cc1cccc(CNc2ncnc3sc(Br)c(-c4ccccc4)c23)n1` [Example 167, 6-bromo-N-[(6-methylpyridin-2-yl)methyl]-5-phenylthieno[2,3-d]pyrimidin-4-amine], 99%; as for `COCCNc1nc(NCc2ccccn2)c2c(-c3ccccc3)csc2n1` [Example 189, N^2-(2-Methoxyethyl)-5-phenyl-N^4-(pyridin-2-ylmethyl)thieno[2,3-d]pyrimidine-2,4-diamine], 97.4%. Still for that read-out and setting: the same measure for `Nc1nc(NCc2ccccn2)c2c(-c3ccccc3)csc2n1` [Example 192, 5-Phenyl-N-4-pyridin-2-ylmethyl-thieno[2,3-d]pyrimidine-2,4-diamine]: 90%. Still for that read-out and setting: as for `CN(C)c1nc(NCc2ccccn2)c2c(-c3ccccc3)csc2n1` [Example 198, N^2,N^2-Dimethyl-5-phenyl-N^4-pyridin-2-ylmethyl-thieno[2,3-d]pyrimidine-2,4-diamine], the figure is 98.1%; as for `OCC(O)CNc1nc(NCc2ccccn2)c2c(-c3ccccc3)csc2n1` (centres unmarked) [Example 214, 3-{5-Phenyl-4-[(pyridin-2-ylmethyl)-amino]-thieno[2,3-d]pyrimidin-2-ylamino}-propane-1,2-diol], 87%; as for `CN1CCN(c2nc(NCc3ccccn3)c3c(-c4ccccc4)csc3n2)CC1` [Example 215, [2-(4-Methyl-piperazin-1-yl)-5-phenyl-thieno[2,3-d]pyrimidin-4-yl]-pyridin-2-ylmethyl-amine], 82%. The molecule `CNC(=O)Cc1nc(NCc2ccccn2)c2c(-c3ccccc3)csc2n1` [Example 287, N-Methyl-2-{5-phenyl-4-[{pyridin-2-ylmethyl)amino]thieno[2,3-d]pyrimidin-2-yl}acetamide] had an inhibition at 1 µM of 91%.

As to `CN(C)Cc1nc(NCc2ccccn2)c2c(-c3ccccc3)csc2n1` [Example 302, (2-Dimethylaminomethyl-5-phenylthieno[2,3-d]pyrimidin-4-yl)pyridin-2-ylmethylamine], at 1 µM the inhibition was 76%.

For the molecule `c1ccc(-c2csc3nc(CN4CCOCC4)nc(NCc4ccccn4)c23)cc1` [Example 303, (2-Morpholin-4-ylmethyl-5-phenyl-thieno[2,3-d]pyrimidin-4-yl)-pyridin-2-ylmethyl-amine], at 1 µM the inhibition was 63%. As to `CNCc1nc(NCc2ccccn2)c2c(-c3ccccc3)csc2n1` [Example 304, (2-Methylaminomethyl-5-phenyl-thieno[2,3-d]pyrimidin-4-yl)-pyridin-2-ylmethyl-amine], the inhibition at 1 µM amounted to 58%. Still for that read-out and setting: as for `COCc1nc(NCc2ccccn2)c2c(-c3ccccc3)csc2n1` [Example 305, (2-Methoxymethyl-5-phenylthien[2,3-d]primidin-4-yl)pyridin-2-ylmethylamine], the figure is 94%; as for `CN(C)c1ccc(-c2csc3ncnc(NCc4ccccn4)c23)cc1` [Example 315, [5-(4-Dimethylamino-phenyl)-thieno[2,3-d]pyrimidin-4-yl]-pyridin-2-ylmethyl-amine], 98%. Still for that read-out and setting: the same measure for `Cc1ccc(-c2csc3ncnc(NCc4ccccn4)c23)cc1C` [Example 316, [5-(3,4-Dimethyl-phenyl)-thieno[2,3-d]pyrimidin-4-yl]-pyridin-2-ylmethyl-amine]: 98%.

The molecule `FC(F)(F)Oc1ccc(-c2csc3ncnc(NCc4ccccn4)c23)cc1` [Example 317, Pyridin-2-ylmethyl-[5-(4-trifluoromethoxy-phenyl)-thieno[2,3-d]pyrimidin-4-yl]-amine] had an inhibition at 1 µM of 98%. On the same count and under the same terms, the same measure for `Cc1ccc(-c2csc3ncnc(NCc4ccccn4)c23)cc1` [Example 318, Pyridin-2-ylmethyl-(5-p-tolyl-thieno[2,3-d]pyrimidin-4-yl)-amine]: 98%. By % Inhibition is commonly meant the change of the read-out against control, counted positive when it falls. The low end stands for a weak effect, the high end for a strong effect. `c1ccc(CNc2ncnc3scc(-c4ccc5c(c4)OCO5)c23)nc1` [Example 319, (5-Benzo[1,3]dioxol-5-yl-thieno[2,3-d]pyrimidin-4-yl)-pyridin-2-ylmethyl-amine]: the “% Inhibition at 1µM” value amounted to 97.3%. In turn, `COCOc1ccc(-c2csc3ncnc(NCc4ccccn4)c23)cc1` [Example 324, [5-(4-Methoxymethoxy-phenyl)-thieno[2,3-d]pyrimidin-4-yl]-pyridin-2-ylmethyl-amine] gave an inhibition at 1 µM of 93%. Same read-out and setting: the same measure for `COC(=O)c1ccc(-c2csc3ncnc(NCc4ccccn4)c23)cc1` [Example 327, 4-{4-[(Pyridin-2-ylmethyl)-amino]-thieno[2,3-d]pyrimidin-5-yl}-benzoic acid methyl ester]: 83%. Same read-out and setting: the same measure for `COc1ccc(-c2csc3ncnc(NCc4ccccn4)c23)cn1` [Example 328, [5-(6-Methoxy-pyridin-3-yl)-thieno[2,3-d]pyrimidin-4-yl]-pyridin-2-ylmethyl-amine]: 83%. The molecule `Clc1ccc(-c2csc3ncnc(NCc4ccccn4)c23)c(Cl)c1` [Example 329, [5-(2,4-Dichloro-phenyl)-thieno[2,3-d]pyrimidin-4-yl]-pyridin-2-ylmethyl-amine] registered an inhibition at 1 µM of 81%. Still for that read-out and setting: as for `FC(F)(F)c1cc(-c2csc3ncnc(NCc4ccccn4)c23)ccc1Cl` [Example 330, [5-(4-Chloro-3-trifluoromethyl-phenyl)-thieno[2,3-d]pyrimidin-4-yl]-pyridin-2-ylmethyl-amine], the figure is 79%.
